Measured values as given in ChEMBL document CHEMBL1139700 (Bioorg Med Chem Lett, 2006).

How the values were obtained:
[1] = molecular target: Neuronal acetylcholine receptor subunit alpha-7 (Rattus norvegicus, UniProt Q05941); assay: Displacement of [3H]alpha-Bungarotoxin from alpha-7 nAChR in rat brain cortex membranes; type: cell membranes, Membrane
[2] = molecular target: Neuronal acetylcholine receptor; alpha4/beta2 (Rattus norvegicus, UniProt P09483+P12390); assay: Displacement of [3H]epibatidine from alpha-4-beta-2 nAChR in rat brain cortex membrane; type: cell membranes
Chain of Neuronal acetylcholine receptor; alpha4/beta2 (P09483 whole entry): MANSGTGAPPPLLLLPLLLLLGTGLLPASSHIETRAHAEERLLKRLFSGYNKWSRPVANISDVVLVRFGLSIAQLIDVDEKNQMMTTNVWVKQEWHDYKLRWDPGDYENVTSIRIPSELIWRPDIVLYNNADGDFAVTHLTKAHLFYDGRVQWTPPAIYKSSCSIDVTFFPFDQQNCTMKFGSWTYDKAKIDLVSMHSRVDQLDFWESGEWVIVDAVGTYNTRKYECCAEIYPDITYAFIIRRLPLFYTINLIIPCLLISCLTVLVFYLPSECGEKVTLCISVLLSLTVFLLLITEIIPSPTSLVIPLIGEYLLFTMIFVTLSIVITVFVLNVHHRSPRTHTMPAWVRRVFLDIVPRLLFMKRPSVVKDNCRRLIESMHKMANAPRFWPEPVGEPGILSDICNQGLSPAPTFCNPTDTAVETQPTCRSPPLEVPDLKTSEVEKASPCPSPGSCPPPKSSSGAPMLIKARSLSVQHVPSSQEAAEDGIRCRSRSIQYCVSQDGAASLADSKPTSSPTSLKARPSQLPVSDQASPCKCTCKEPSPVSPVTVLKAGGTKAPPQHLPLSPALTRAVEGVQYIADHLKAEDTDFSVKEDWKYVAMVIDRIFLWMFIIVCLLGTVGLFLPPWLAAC
Chain of Neuronal acetylcholine receptor; alpha4/beta2 (P12390 whole entry): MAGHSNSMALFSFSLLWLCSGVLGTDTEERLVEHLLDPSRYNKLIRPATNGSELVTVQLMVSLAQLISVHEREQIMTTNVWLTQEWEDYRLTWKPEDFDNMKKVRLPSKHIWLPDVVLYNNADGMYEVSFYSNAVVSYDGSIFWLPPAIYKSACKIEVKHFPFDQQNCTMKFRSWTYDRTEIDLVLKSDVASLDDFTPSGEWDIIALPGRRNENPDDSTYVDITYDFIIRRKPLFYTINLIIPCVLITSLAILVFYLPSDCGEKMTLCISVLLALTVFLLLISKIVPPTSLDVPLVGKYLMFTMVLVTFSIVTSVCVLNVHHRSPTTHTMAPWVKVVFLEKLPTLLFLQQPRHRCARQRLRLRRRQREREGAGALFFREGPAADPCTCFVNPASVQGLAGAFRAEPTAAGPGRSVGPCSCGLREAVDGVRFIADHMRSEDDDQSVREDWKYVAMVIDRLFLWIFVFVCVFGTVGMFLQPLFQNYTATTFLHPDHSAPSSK

[3] = molecular target: T1, Adrenergic receptor alpha-2 (Rattus norvegicus, UniProt P22086+P19328+P22909); assay: Displacement of [3H]RS 79948-197 from rat cortex adrenergic alpha-2 receptor
T1 sequence (P22086 whole entry): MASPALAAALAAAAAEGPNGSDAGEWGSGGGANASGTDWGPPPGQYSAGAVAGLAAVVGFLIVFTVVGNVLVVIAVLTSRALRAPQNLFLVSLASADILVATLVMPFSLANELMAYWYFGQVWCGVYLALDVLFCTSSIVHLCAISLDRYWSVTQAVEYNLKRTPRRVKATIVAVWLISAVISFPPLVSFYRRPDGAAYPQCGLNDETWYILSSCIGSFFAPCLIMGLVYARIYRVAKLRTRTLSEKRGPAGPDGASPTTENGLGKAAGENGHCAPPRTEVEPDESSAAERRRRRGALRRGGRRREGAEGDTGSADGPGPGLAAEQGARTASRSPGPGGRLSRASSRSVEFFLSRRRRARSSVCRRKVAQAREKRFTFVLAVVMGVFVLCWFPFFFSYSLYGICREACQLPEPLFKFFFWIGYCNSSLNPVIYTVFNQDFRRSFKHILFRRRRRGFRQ
T1 sequence (P19328 whole entry): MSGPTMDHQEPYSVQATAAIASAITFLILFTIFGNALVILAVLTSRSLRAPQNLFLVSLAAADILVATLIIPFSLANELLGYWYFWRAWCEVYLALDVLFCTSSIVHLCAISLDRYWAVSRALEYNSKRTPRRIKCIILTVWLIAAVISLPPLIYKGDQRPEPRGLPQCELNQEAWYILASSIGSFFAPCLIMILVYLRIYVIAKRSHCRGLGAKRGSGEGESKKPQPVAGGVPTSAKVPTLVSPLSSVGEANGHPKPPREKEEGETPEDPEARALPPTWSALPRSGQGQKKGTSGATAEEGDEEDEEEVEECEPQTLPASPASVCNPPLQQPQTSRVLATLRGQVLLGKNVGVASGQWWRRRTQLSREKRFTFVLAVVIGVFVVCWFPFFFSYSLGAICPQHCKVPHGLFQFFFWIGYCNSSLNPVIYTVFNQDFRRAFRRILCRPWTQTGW
T1 sequence (P22909 whole entry): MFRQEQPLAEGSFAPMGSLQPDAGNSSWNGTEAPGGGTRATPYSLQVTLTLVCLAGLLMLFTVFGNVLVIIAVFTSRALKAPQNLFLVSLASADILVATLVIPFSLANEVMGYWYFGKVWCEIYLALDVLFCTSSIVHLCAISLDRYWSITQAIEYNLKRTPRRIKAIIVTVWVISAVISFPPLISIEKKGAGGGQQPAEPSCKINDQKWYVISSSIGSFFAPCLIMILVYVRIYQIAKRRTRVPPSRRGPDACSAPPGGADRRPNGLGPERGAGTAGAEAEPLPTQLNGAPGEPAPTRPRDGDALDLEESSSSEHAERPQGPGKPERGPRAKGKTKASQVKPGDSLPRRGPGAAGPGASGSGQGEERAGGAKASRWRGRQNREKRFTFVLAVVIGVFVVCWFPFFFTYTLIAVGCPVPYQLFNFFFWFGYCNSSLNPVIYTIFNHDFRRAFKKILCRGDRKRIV

Chain of Neuronal acetylcholine receptor subunit alpha-7 (Q05941 whole entry): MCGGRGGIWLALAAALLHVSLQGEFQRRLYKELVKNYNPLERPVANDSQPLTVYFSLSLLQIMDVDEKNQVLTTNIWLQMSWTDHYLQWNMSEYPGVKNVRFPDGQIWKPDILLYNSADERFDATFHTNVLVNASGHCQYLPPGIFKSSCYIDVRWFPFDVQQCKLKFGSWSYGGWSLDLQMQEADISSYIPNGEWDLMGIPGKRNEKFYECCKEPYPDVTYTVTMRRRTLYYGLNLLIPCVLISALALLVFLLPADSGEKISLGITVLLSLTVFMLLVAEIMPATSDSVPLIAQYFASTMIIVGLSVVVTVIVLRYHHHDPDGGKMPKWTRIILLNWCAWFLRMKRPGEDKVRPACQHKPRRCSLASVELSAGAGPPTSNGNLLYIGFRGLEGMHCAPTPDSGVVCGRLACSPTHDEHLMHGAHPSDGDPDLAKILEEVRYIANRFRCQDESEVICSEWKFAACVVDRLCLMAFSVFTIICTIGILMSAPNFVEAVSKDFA

SMILES	Ki [1] [µM]	Ki [2] [µM]	Ki [3] [µM]
CN1CCC[C@H]1[C@H]1CNC(=O)O1	117	62	–
CN1CCC[C@@H]1[C@@H]1CNC(=O)O1	338	80	–
CN1CCC[C@H]1[C@@H]1COc2ccccc2O1.Cl	12	0.62	0.77
CN1CCC[C@@H]1[C@H]1COc2ccccc2O1.Cl	45	2.57	0.47
